{"source": "patent US12583884B2", "about": "“3beta-(benzyloxy)-17alpha-methyl-pregn-5-en-20-one for use in the treatment of cognitive disorders” (AELIS FARMA, priority 2018, dated 2026)", "key": {"[1]": {"assay": "7-day oral safety study in rats", "type": "in vivo, Sprague-Dawley rats", "method": "Morbidity/mortality checks were performed twice daily. Clinical observations were performed before the first dosing and then daily. Functional and neurobehavioral tests were performed before the first dosing and on the last day of treatment. Body weight was recorded on Day-1, Day-3, Day-5 and Day-7. Food consumption was measured weekly.\nBlood samples for haematology parameters and clinical chemistry analysis were collected on the day of necropsy (Day-8).\nAnimals were sacrificed on Day-8. Selected organs were weighed, fixed, preserved at necropsy and examined histopathologically."}, "[2]": {"assay": "Anxiety-like behaviors in the elevated plus maze", "type": "in vivo, mouse", "source_text": "The EPM apparatus was made of grey polyvinyl chloride and consisted of four elevated arms. The arms (height, 60 cm; length, 37 cm; width, 6 cm; each) were arranged in a cross-like disposition, with two opposite arms being enclosed by walls and the two other arms being open. A video camera placed on the top of the maze and connected to a tracking system allowed the automatic scoring of the locomotion of the mice in the maze. The light intensity of the maze was set at 45 lux in the open arms. One mouse was placed in the center of the EPM and was then free to explore the entire maze for 5 minutes. The time spent and the number of entries into the open arms and closed arms were measured. A decrease in the percentages of visits and/or of the time spent in open arms reflects an increase in anxiety levels.\nRimonabant was dissolved in a vehicle containing DMSO, (2%), Tween80 (2%) in injectable NaCl 0.9%. Within the same study, the effect of intraperitoneal injection of rimonabant at 10 mg/kg or of vehicle alone (10 ml/kg) was studied in the EPM in 2-month-old male C57B1/6J mice (n=10 per group). The EPM test was performed 30 minutes after rimonabant injection."}, "[3]": {"test_system": "19 to 22-month-old C57B1/6J mice", "assay": "Declarative/relational memory (radial maze flexibility test), aged mice", "type": "in vivo, mouse", "conditions": "0.6 μg/ml in drinking water, chance level 50%", "method": "The relational memory task was performed using 8-arm radial mazes described in Example 3b. Food restriction and habituation procedures were performed as described in Example 3b. Acquisition began 24 h after the last habituation session. The acquisition stage consisted in learning the positions of the food pellets within the maze. […] One arm of each pair contained reward at its end, the other arm of each pair was not baited.\nAcquisition is based on a go-no go procedure. The arms are presented one by one. Subjects are expected to visit the rewarded arms faster than the non-rewarded arms. At the beginning of each daily session, the mouse was placed at the center of the maze with no access to the arms. The doors of the first arm then opened. […] The door of an arm then open immediately after (0-sec inter-trial interval). […] Each daily session contained 40 successive arm presentations (i.e. trials) organized into two distinct temporal sequences. In the first sequence (20 trials), four arms of the maze were presented alternatively (two baited and two non-baited). Consecutively, the second sequence started (20 trials); the four other arms of the maze were presented alternatively (two baited and two non-baited). […]\nAt each trial, the latency to visit the arm is measured. […]\nFlexibility of learning was evaluated in the following conditions. […]\nThe percentage of correct responses for each pair was measured. […]"}, "[4]": {"test_system": "Ts65Dn mice", "assay": "Short-term sequential object recognition, Down syndrome model", "type": "in vivo, mouse", "conditions": "0.6 μg/ml in drinking water, 2 months, delays 5 and 35 min", "method": "Mice were allowed to explore 3 different objects (A, B, C) presented one after the other and following one of the two possible sequences: A-C-C-B-A and A-B-C-C-A. In an open field, mice were exposed to object A for 5 min and then placed back into their home cage. After a delay of 5 minutes, mice were exposed to object B or C for 5 min and then placed back into their home cage, and so on. Consequently, the retention delay between two presentations of object C was of 5 minutes whereas the retention delay between two presentations of object A was of 35 minutes. The time spent exploring object A or C at the first presentation was compared with the time exploring the same object at the second presentation. This parameter is used to evaluate object recognition performances.\nBefore the object recognition procedure, mice were tested in the radial maze."}, "[5]": {"target": "T1, wild-type human CB1 receptor (Homo sapiens, UniProt P21554)", "T1 construct": "expressed in transfected cells; host or cells: HEK-293 (transient)", "T1 sequence (P21554 whole entry)": "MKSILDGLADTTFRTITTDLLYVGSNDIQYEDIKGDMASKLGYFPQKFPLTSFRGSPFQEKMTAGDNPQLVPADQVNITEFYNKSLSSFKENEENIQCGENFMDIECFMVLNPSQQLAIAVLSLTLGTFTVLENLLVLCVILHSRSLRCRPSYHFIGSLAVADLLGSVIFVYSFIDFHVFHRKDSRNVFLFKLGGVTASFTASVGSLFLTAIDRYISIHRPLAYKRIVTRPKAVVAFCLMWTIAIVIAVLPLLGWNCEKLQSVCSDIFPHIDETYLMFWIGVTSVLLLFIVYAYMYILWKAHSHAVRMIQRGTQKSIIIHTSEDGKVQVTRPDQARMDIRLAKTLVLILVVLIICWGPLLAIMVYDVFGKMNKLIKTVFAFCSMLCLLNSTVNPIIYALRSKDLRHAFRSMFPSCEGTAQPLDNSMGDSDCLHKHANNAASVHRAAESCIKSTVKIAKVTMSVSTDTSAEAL", "assay": "THC-induced inhibition of cellular respiration in HEK-293-hCB1-WT", "type": "cell-based", "conditions": "THC 1 μM", "method": "In a first study (FIG. 5A), HEK-293 cells were transiently transfected with the wild-type hCB1-expressing plasmid (HEK-293-hCB1-WT). […] After 15 min of incubation, THC (0; 1 μM, dissolved in EtOH, 0.0034%) was added in the culture dishes for 30 minutes.\nCellular respiration was measured in a calibrated oxygraph equipped with a Clark electrode. Oxygen consumption (OC) rate was used to measure cellular respiration."}}}
{"smiles": "CC(=O)[C@@]1(C)CC[C@H]2[C@@H]3CC=C4C[C@@H](OCc5ccccc5)CC[C@]4(C)[C@H]3CC[C@@]21C", "note": "[3Bn17MeP, 3β-benzyloxy, 17α-methyl-pregn-5-en-20-one]", "values": [{"measurement": "Histopathological changes", "setting": "[1]; 20 mg/kg per os, 7 days", "result": "not associated with any histopathological changes"}, {"measurement": "Total protein level", "setting": "[1]; 20 mg/kg per os, 7 days", "result": "tendency to lower total protein level"}, {"measurement": "Triglyceride level", "setting": "[1]; 20 mg/kg per os, 7 days", "result": "higher triglyceride level"}, {"measurement": "Triglyceride level", "setting": "[1]; 20 mg/kg per os, 7 days, females", "result": "tendency to a lower triglyceride level"}, {"measurement": "Red blood cell counts", "setting": "[1]; 20 mg/kg per os, 7 days, males", "result": "slight tendency to a lower red blood cell counts"}, {"measurement": "White blood cell counts", "setting": "[1]; 20 mg/kg per os, 7 days, males and females", "result": "tendency to a lower white blood cell counts"}, {"measurement": "Signs of toxicity", "setting": "[1]; 20 mg/kg/day per os, 7 consecutive days", "result": "did not induce any sign of toxicity"}, {"measurement": "MTD at 7 days", "setting": "[1]; both sexes, Sprague-Dawley, rat, in vivo, oral, 20 mg/kg, repeated treatment at a single dose, 7 days per os, read-out: Maximum tolerated dose (MTD)", "result": "> 20", "unit": "mg/kg/day"}, {"measurement": "Percentage of time spent and of visits in the open arms", "setting": "[2]; acute 30 mg/kg per os, 3 hours after administration", "result": "had no effect"}, {"measurement": "Effect: increase in anxiety-like behaviors (acute administration)", "setting": "[2]; male mice, highest dose tested 30 mg/kg", "result": "No"}, {"measurement": "Correct responses in the flexibility test (choice accuracy)", "setting": "[3]", "result": "more than 70%"}, {"measurement": "Exploration of the familiar object (short-term sequential object recognition)", "setting": "[4]", "result": "explored significantly less the familiar object after 5 and 35 minutes"}, {"measurement": "ID100", "setting": "[5]; HEK-293-hCB1", "result": 50, "unit": "nM"}, {"measurement": "% Inhibition", "setting": "[5]; HEK-293-hCB1, maximal inhibition of THC effect", "result": 100, "unit": "%"}, {"measurement": "Concentration with significant block of THC-induced inhibition of cellular respiration", "setting": "[5]; tested 1, 2.5, 5, 50 and 100 nM, Tukey's test", "result": "≥ 2.5", "unit": "nM"}]}
